Experimental data as given in patent US9149509B2, “Methods for improving neurological outcome after neural injury and neurodegenerative disease” (HENRY FORD HEALTH SYSTEM, priority 2009, dated 2015).

Legend:
[1] = test system: stroke (middle cerebral artery occlusion (MCAo)) rats; experiment: Embolic middle cerebral artery occlusion (MCAo) stroke model in rats; type: in vivo, rat
Procedure: (§1) Effectiveness of treatment with thymosin β4 was tested in stroke (middle cerebral artery occlusion (MCAo)) rats and in experimental autoimmune encephalomyelitis (EAE) mice (a well-established in vivo model for multiple sclerosis). Both the stroke rats and the EAE mice were treated with 6 mg/kg thymosin β4 intraperitoneally (IP) in a volume of 0.3 mL twenty-four hours after stroke or after the day of immunization in the EAE model and then every three days (6 mg/kg IP) for four additional doses. An equal volume of saline was administered (IP) to a group of both stroke rats and EAE mice as a control. Bromodeoxyuridine (BrdU; 100 mg/kg) was administered (IP) daily for seven days, initiated 24 hours after MCAo to label proliferating cells. Behavioral tests (adhesive removable test and NSS (Neurological Severity Score)) were performed immediately before treatment and at days 1, 7, 14, 21, 28, 35, 42, 49, and 56 days after MCAo and up to 30 days in the EAE mouse model. All rats were sacrificed 56 days after MCAo; EAE mice were sacrificed at 30 days.

[2] = test system: experimental autoimmune encephalomyelitis (EAE) mice; experiment: Experimental autoimmune encephalomyelitis (EAE) mouse model of multiple sclerosis; type: in vivo; details: 6 mg/kg IP, up to 30 days, vs saline control, p<0.01, FIG. 9
Procedure: as §1

[3] = embolic stroke rats, 6 mg/kg IP, vs saline control

thymosin β4
number of myelinated axons (Bielschowsky and Luxol Fast Blue staining) ([1]; after MCAo, treated vs control, p<0.05, FIG. 4): increased | cellular proliferation (BrdU expression, number of BrdU immunoreactive cells) ([1]; after MCAo, treated vs control, p<0.05, FIG. 8): increased | number of oligodendrocyte progenitors and matured oligodendrocytes ([1]; after MCAo, treated vs control, p<0.05, FIGS. 5-7): increased | functional improvement in behavioral tests (adhesive removal test, NSS) ([1]; beginning at 21 days after stroke onset, 6 mg/kg IP, p<0.05, FIG. 1-2): Significant functional improvement | relative increase in BrdU expression in the striatum or myelinated region of the rat brain ([1]; embolic stroke rats, 6 mg/kg IP 24 h after stroke, then every three days for four additional doses, sacrificed 56 days after MCAo): 42% | increase in CNP, a marker of mature oligodendrocytes [1, 3]: 11% | increase in NG-2, a marker of immature oligodendrocytes [1, 3]: 47% | functional neurological score [2]: robust improvement
